Test [1] concerns S.aureus. The experiment in a line: Whole cell antimicrobial screen (MIC, NCCLS microdilution). As to conditions: for MIC: Staphylococcus aureus. The test is classed as cell-based. How it is done:
Compounds were tested for antimicrobial activity against a panel of organisms according to standard procedures described by the National Committee for Clinical Laboratory Standards (NCCLS document M7-A3, Vol. 13, No. 25, 1993/NCCLS document M27-P, Vol. 12, No. 25, 1992). Compounds were dissolved in 100% DMSO and were diluted to the final reaction concentration (0.1 μg/ml-500 μg/ml) in microbial growth media. In all cases the final concentration of DMSO incubated with cells is less than or equal to 1%. For minimum inhibitory concentration (MIC) calculations, 2-fold dilutions of compounds were added to wells of a microtiter plate containing 5×10^4 bacteria or fungal cells in a final volume of 200 lambda of an appropriate media (Mueller-Hinton Broth; Haemophilus Test Media; Mueller-Hinton Broth+5% Sheep Blood; or […]). Plates were incubated overnight at an appropriate temperature (30° C.-37° C.) and optical densities (measure of cell growth) were measured using a commercial plate reader. The MIC value is defmed as the lowest compound concentration inhibiting growth of the test organism.
On the technique in general: In broth dilution the organism is exposed to a series of concentrations in liquid medium.

Test [2] addresses T1, E.faecalis PheRS (Enterococcus faecalis, UniProt Q836J6).
T1 sequence (Q836J6 1-348): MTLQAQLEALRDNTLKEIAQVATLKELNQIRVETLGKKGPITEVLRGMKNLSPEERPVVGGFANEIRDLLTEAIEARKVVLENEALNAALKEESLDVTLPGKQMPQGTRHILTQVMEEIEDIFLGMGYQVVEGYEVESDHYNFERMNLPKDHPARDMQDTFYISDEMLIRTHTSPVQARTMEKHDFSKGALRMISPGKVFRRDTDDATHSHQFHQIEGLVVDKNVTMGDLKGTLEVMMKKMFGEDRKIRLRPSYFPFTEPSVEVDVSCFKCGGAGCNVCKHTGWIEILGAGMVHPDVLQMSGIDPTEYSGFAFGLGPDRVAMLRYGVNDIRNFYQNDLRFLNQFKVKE
T1 sequence (Q836J5 1-807 partner): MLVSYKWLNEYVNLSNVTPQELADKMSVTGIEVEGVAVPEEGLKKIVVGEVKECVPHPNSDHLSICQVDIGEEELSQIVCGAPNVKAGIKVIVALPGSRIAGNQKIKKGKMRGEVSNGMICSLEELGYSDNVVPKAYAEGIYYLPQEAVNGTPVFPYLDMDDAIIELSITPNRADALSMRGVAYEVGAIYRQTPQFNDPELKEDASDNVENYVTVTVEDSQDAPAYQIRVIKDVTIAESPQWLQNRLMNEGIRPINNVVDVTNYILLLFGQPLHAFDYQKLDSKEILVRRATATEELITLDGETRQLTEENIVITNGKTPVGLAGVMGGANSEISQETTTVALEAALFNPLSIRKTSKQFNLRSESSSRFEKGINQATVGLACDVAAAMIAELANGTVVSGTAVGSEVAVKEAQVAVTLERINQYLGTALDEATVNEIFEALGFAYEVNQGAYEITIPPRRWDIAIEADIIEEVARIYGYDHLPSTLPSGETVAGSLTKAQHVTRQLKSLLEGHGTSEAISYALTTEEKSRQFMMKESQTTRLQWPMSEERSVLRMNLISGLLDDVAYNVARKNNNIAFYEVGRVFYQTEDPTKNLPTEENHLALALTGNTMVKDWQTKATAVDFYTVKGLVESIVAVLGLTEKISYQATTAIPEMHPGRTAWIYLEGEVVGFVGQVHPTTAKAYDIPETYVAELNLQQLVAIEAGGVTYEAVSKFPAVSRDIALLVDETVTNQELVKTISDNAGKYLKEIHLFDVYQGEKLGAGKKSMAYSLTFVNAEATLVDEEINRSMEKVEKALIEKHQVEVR
The experiment in a line: aaRS charging and trichloroacetic acid precipitation assay, IC50 determination. It is filed as biochemical. As to conditions: 20 min preincubation at 25 C; Km concentrations of substrates; stereoisomers tested separately. How it is done:
IC50 determinations for the aminoacyl-tRNA synthetases (aaRS) isolated from pathogen or HeLa cells were carried out using a modification of the aaRS charging and trichloroacetic acid precipitation assay described previously (see examples: D. Kern et. al., Biochemie, 61, 1257-1272 (1979) and J. Gilbart et. al. Antimicrobial Agents and Chemotherapy, 37(1), 32-38 (1993)). The aaRS enzymes were prepared via standard cloning and expression methods and partially purified or partially purified from pathogen and HeLa cell extracts. The activity of each aaRS enzyme was standardized as trichloroacetic acid precipitable counts (cpm) obtained at 10 minutes reaction time at Km concentrations of substrates. For practical purposes, the minimal acceptable value is approximately 2000 cpm per 10 minute reaction.
Test compounds were typically present as serial dilutions in concentration ranges of 0.35 nM to 35 μM. Test compound solutions were prepared by dissolving test compound in 100% dimethyl sulfoxide and diluting to the final concentration with 50 mM HEPES, pH 7.5. IC50 determinations were typically performed in duplicate with each experiment containing 4-8 concentrations of inhibitor along with two no inhibitor controls.
IC50 incubations were initiated by supplementing the preincubation mixture to a final assay concentration of 10 mM MgCl2, 30 mM KCl, 10 mM KF, 50 mM HEPES (pH 7.5), […], 2-20 μM [^3 H] amino acid, and 90-180 μM crude tRNA in a final volume of 35 microliters. The reaction was incubated at 25° C. for 5-20 minutes. At specified time points a 15 microliter aliquot was removed and added to a well of a Millipore filtration plate (Multiscreen-FB, MAFB NOB 10) containing 100 microliters of cold 5% (wt/vol) trichloroacetic acid. Trichloroacetic acid precipitable material was collected by filtration on Millipore Multiscreen filtration station, washed twice with cold 5% trichloroacetic acid, twice with water, and dried. Plates were typically allowed to air dry for several hours or they were baked at 50° C. in a vacuum oven for 30 minutes. The radioactivity on the dried plates was quantitated by the addition of Packard Microscint-20 to the wells and counting with a Packard TopCount scintillation counter.
Inhibitor activity was typically reported as a percentage of the control aaRS activity. The IC50 value was determined by plotting per cent activity versus compound concentration in the assay and identifying the concentration at which 50% of the activity was remaining.
Stereoisomers are tested separately and referred to by the suffix a-d.

[3] abbreviates: 2-fold dilutions, overnight incubation, optical density readout.
The mark [4] stands for this setting: 2-fold dilutions, overnight incubation, optical density readout, read-out: MIC S.aureus.

Molecules are shown by their SMILES. In brackets after ≈: the same amount, converted by molar mass. Like-named read-outs stand apart in the source and are kept apart here. Where only a bound is given, the exact number is not on record here.

Take `O=C(Nc1ccc(Cl)c(Cl)c1)C1C(c2ccccc2)OC23C(=NO)c4ccccc4C2OC(=O)C13` (centres unmarked) [Example 5]: in test [1] (read-out: MIC S.aureus, 2-fold dilutions, overnight incubation, optical density readout), the MIC is less than 100 µg/mL.

In general, IC50 refers to the concentration that inhibits the measured activity by half. A high value points to weaker potency in that assay. With `Cc1ccc(NC(=O)C2C(c3ccccc3)OC34C(O)c5ccccc5C3OC(=O)C24)cc1Cl` (centres unmarked) [Example 4c], the “MIC S.aureus” value in test [1] (setting [3]) stood at 25 µg/mL (≈ 52.5 µM). The compound further yielded a half-maximal inhibitory concentration (IC50) in test [2] of 33200 nM.

As to `Cc1ccc(NC(=O)C2C(c3ccccc3)OC34C(O)c5ccccc5C3OC(=O)C24)cc1Cl` (centres unmarked) [Example 4b], in test [1] (setting [3]), the “MIC S.aureus” value is greater than 100 µg/mL. 8230 nM corresponded to half-maximal inhibition in test [2] (IC50).

Consider `O=C(Nc1ccc(Cl)c(Cl)c1)C1C(c2ccccc2)OC23C(O)c4ccccc4C2OC(=O)C13` (single isomer, unassigned) [Example 1a], for which, in test [1] (setting [3]), the “MIC S.aureus” value is 3.1 µg/mL (≈ 6.25 µM). The same compound gave an IC50 in test [2] of 170 nM.

As for `O=C(Nc1ccc(Cl)c(Cl)c1)C1C(c2ccccc2)NC23C(O)c4ccccc4C2OC(=O)C13` (single isomer, unassigned) [Example 3b], in test [1] (setting [4]), the MIC came to 25 µg/mL (≈ 50.5 µM). Also, half-maximal inhibition in test [2] (IC50) required 4300 nM.

Turning to `O=C(Nc1ccc(Cl)c(Cl)c1)C1C(c2ccccc2)OC23C(O)c4ccccc4C2OC(=O)C13` (single isomer, unassigned) [Example 1b], in test [1] (setting [3]), the “MIC S.aureus” value amounted to 6.25 µg/mL (≈ 12.6 µM). Besides, the IC50 in test [2] was 470 nM.

Take `O=C(Nc1ccc(Cl)c(Cl)c1)C1C(c2ccccc2)OC23C(=O)c4ccccc4C2OC(=O)C13` (centres unmarked) [Example 2]: the MIC in test [1] (setting [4]) was greater than 100 µg/mL. The compound further returned an IC50 in test [2] of 3080 nM.

`O=C(Nc1ccc(Cl)c(Cl)c1)C1C(c2ccccc2)NC23C(O)c4ccccc4C2OC(=O)C13` (single isomer, unassigned) [Example 3c]: in test [1] (setting [3]), the “MIC S.aureus” value was 12.5 µg/mL (≈ 25.2 µM). The compound further displayed a concentration for half-maximal inhibition (IC50) in test [2] of 400 nM.

As for `Cc1ccc(NC(=O)C2C(c3ccccc3)OC34C(O)c5ccccc5C3OC(=O)C24)cc1Cl` (centres unmarked) [Example 4a], the “MIC S.aureus” value in test [1] (setting [3]) is greater than 100 µg/mL. In test [2], this compound returned an IC50 of 1480 nM.

Values taken from patent US6153645A, “Heterocycles as antimicrobial agents” (Cubist Pharmaceuticals, Inc., priority 1999, dated 2000).
